Experiment [1] deals with p70S6K (Homo sapiens, UniProt P23443). The experiment in a line: Luciferase-coupled chemiluminescence kinase assay (ATP consumption). It is filed as biochemical. To be noted: Table 1; class symbols per key. The procedure: (§1) One measure of inhibition is Ki. […] The Ki for a compound is determined from the IC50 based on three assumptions. First, only one compound molecule binds to the enzyme and there is no cooperativity. […] Third, the enzymatic rate of the enzyme-inhibitor complex is zero. The rate data (i.e. compound concentration) are fitted to the equation: […]
(§2) Luciferase-Coupled Chemiluminescence Assay Protocol
(§3) Kinase activity is measured as the percent of ATP consumed following the kinase reaction using luciferase-luciferin-coupled chemiluminescence. Reactions were conducted in 384-well white, medium binding microtiter plates (Greiner). Kinase reactions were initiated by combining test compounds, ATP and kinase in a 20 uL volume. The reaction mixture was incubated at ambient temperature for 3 hrs. For p70S6K and/or AktK, 2.5-5 nM of the enzyme was pre-incubated with compound in 20 mM Tris pH 7.5, 10 mM MgCl2, 0.03% TX-100, and 1 mM DTT for 30 minutes at room temperature. Following the kinase reaction, a 20 μL aliquot of luciferase-luciferin mix was added and the chemiluminescence signal measured using a Victor^2 plate reader (Perkin Elmer). The luciferase-luciferin mix contained 50 mM HEPES, pH 7.8, 67 mM oxalic acid (pH 7.8), 5 (or 50) mM DTT, 0.4% Triton X-100, 0.25 mg/mL coenzyme A, 63 μM AMP, 28 μg/1 mL luciferin and 40,000 units/mL luciferase. Total ATP consumption was limited to 25-60% and the IC50 values correlate well with those determined by radiometric assays.

The target in experiment [2] is AktK (Homo sapiens, UniProt P31749). Described as above. To be noted: Table 1; class symbols per key; read-out: AKT-1 IC50. It is filed as biochemical. The procedure:
as §1, §2, §3

Chain of AktK (P31749 whole entry): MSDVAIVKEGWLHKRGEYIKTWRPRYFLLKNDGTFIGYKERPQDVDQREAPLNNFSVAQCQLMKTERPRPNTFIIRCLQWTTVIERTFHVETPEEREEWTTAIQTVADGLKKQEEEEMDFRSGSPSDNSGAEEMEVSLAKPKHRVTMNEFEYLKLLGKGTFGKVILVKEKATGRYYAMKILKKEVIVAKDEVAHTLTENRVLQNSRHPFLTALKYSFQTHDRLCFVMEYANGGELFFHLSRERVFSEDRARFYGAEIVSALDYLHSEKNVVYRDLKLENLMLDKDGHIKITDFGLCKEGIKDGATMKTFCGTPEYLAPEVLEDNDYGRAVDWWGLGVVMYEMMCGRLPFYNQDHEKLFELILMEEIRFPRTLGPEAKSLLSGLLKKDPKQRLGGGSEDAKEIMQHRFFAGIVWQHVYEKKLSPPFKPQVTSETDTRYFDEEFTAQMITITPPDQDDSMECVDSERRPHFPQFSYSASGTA
Chain of p70S6K (P23443 whole entry): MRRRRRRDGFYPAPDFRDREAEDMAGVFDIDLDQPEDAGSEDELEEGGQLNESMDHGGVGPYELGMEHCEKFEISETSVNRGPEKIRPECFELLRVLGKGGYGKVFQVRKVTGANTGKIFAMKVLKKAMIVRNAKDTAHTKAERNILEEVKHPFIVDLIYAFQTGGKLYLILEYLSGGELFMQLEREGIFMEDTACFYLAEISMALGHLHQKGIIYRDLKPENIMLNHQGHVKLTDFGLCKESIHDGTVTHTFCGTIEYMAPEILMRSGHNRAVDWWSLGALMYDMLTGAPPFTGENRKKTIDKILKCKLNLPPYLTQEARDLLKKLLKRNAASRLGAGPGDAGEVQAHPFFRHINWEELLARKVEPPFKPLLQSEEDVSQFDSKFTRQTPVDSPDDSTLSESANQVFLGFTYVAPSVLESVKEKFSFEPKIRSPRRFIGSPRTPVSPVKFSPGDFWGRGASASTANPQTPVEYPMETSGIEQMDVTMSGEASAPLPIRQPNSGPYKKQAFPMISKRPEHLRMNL

For the molecule `CCc1n[nH]c2ncnc(N3CCN(c4cc(Cl)cc(OCCCN5CCN(C)CC5)c4C)CC3)c12` [Entry 36, 4-[4-(5-chloro-2-methyl-3-{[3-(4-methylpiperazin-1-yl)propyl]oxy}phenyl)piperazin-1-yl]-3-ethyl-1H-pyrazolo[3,4-d]pyrimidine], the IC50 in experiment [1] was less than 100 nM; in experiment [2] it was 100 to 1000 nM.

In the case of `Cc1c(OCCCN2CCCCC2)cc(Cl)cc1N1CCN(c2ncnc3[nH]nc(Br)c23)CC1` [Entry 37, 3-bromo-4-(4-{5-chloro-2-methyl-3-[(3-piperidin-1-ylpropyl)oxy]phenyl}piperazin-1-yl)-1H-pyrazolo[3,4-d]pyrimidine], the IC50 in experiment [1] was less than 100 nM; in experiment [2], 100 to 1000 nM.

Turning to `Cc1c(OCCCN2CCOCC2)cc(Cl)cc1N1CCN(c2ncnc3[nH]nc(Br)c23)CC1` [Entry 38, 3-bromo-4-(4-{5-chloro-2-methyl-3-[(3-morpholin-4-ylpropyl)oxy]phenyl}piperazin-1-yl)-1H-pyrazolo[3,4-d]pyrimidine], the IC50 in experiment [1] was less than 100 nM; in experiment [2], 100 to 1000 nM.

For `Cc1c(OCCN2CCCC2)cc(Cl)cc1N1CCN(c2ncnc3[nH]nc(C(F)(F)F)c23)CC1` [Entry 39, 4-(4-{5-chloro-2-methyl-3-[(2-pyrrolidin-1-ylethyl)oxy]phenyl}piperazin-1-yl)-3-(trifluoromethyl)-1H-pyrazolo[3,4-d]pyrimidine], the IC50 in experiment [1] is less than 100 nM; in experiment [2], 100 to 1000 nM.

Take `Cc1c(OCCCN2CCOCC2)cc(Cl)cc1N1CCN(c2ncnc3[nH]nc(C(F)(F)F)c23)CC1` [Entry 40, 4-(4-{5-chloro-2-methyl-3-[(3-morpholin-4-ylpropyl)oxy]phenyl}piperazin-1-yl)-3-(trifluoromethyl)-1H-pyrazolo[3,4-d]pyrimidine]: the IC50 in experiment [1] is less than 100 nM; in experiment [2], 1000 to 10000 nM.

On to `Cc1c(OCCN2CCOCC2)cc(Cl)cc1N1CCN(c2ncnc3[nH]nc(C(F)(F)F)c23)CC1` [Entry 41, 4-(4-{5-chloro-2-methyl-3-[(2-morpholin-4-ylethyl)oxy]phenyl}piperazin-1-yl)-3-(trifluoromethyl)-1H-pyrazolo[3,4-d]pyrimidine], for which the half-inhibitory concentration (IC50) in experiment [1] was less than 100 nM; in experiment [2] it was 1000 to 10000 nM.

`CCN(CC)CCCOc1cc(Cl)cc(N2CCN(c3ncnc4[nH]nc(C(F)(F)F)c34)CC2)c1C` [Entry 56, 3-[(5-chloro-2-methyl-3-{4-[3-(trifluoromethyl)-1H-pyrazolo[3,4-d]pyrimidin-4-yl]piperazin-1-yl}phenyl)oxy]-N,N-diethylpropan-1-amine]: the half-maximal inhibitory concentration (IC50) in experiment [1] is less than 100 nM; in experiment [2], 100 to 1000 nM.

For the molecule `Cc1ccc(N2CCN(c3ncnc4[nH]nc(Br)c34)CC2)cc1NCCN1CCCC1` [Entry 57, 5-[4-(3-bromo-1H-pyrazolo[3,4-d]pyrimidin-4-yl)piperazin-1-yl]-2-methyl-N-(2-pyrrolidin-1-ylethyl)aniline], the figures for the IC50 in experiment [1] and in experiment [2] were 100 to 1000 nM and 1000 to 10000 nM, respectively.

As for `Cc1c(NCCN2CCCC2)cc(F)cc1N1CCN(c2ncnc3[nH]nc(Br)c23)CC1` [Entry 58, 3-[4-(3-bromo-1H-pyrazolo[3,4-d]pyrimidin-4-yl)piperazin-1-yl]-5-fluoro-2-methyl-N-(2-pyrrolidin-1-ylethyl)aniline], the IC50 in experiment [1] is less than 100 nM; in experiment [2], 100 to 1000 nM.

As for `Cc1c(CCCN2CCCC2)cc(Cl)cc1N1CCN(c2ncnc3[nH]ncc23)CC1` [Entry 59, 4-{4-[5-chloro-2-methyl-3-(3-pyrrolidin-1-ylpropyl)phenyl]piperazin-1-yl}-1H-pyrazolo[3,4-d]pyrimidine], the IC50 in experiment [1] was less than 100 nM; in experiment [2] it was 1000 to 10000 nM.

`Cc1c(CCCN2CCCC2)cc(F)cc1N1CCN(c2ncnc3[nH]nc(Br)c23)CC1` [Entry 60, 3-bromo-4-{4-[5-fluoro-2-methyl-3-(3-pyrrolidin-1-ylpropyl)phenyl]piperazin-1-yl}-1H-pyrazolo[3,4-d]pyrimidine]: the IC50 was less than 100 nM in experiment [1] and 100 to 1000 nM in experiment [2].

For `Cc1c(CCCN2CCCC2)cc(Cl)cc1N1CCN(c2ncnc3[nH]nc(C(F)(F)F)c23)CC1` [Entry 61, 4-{4-[5-chloro-2-methyl-3-(3-pyrrolidin-1-ylpropyl)phenyl]piperazin-1-yl}-3-(trifluoromethyl)-1H-pyrazolo[3,4-d]pyrimidine], the IC50 in experiment [1] and in experiment [2] was less than 100 nM each time.

For `CCc1n[nH]c2ncnc(N3CCN(c4cc(Cl)cc(CCCN5CCN(C)CC5)c4C)CC3)c12` [Entry 62, 4-(4-{5-chloro-2-methyl-3-[3-(4-methylpiperazin-1-yl)propyl]phenyl}piperazin-1-yl)-3-ethyl-1H-pyrazolo[3,4-d]pyrimidine], the IC50 in experiment [1] was less than 100 nM; in experiment [2] it was 100 to 1000 nM.

As to `Brc1n[nH]c2ncnc(N3CCN(c4ccccn4)CC3)c12` [Entry 63, 3-bromo-4-(4-pyridin-2-ylpiperazin-1-yl)-1H-pyrazolo[3,4-d]pyrimidine], the IC50 in experiment [1] is 100 to 1000 nM; in experiment [2] it was 1000 to 10000 nM.

Regarding `Cc1ccc(N2CCN(c3ncnc4[nH]nc(Br)c34)CC2)c(C)c1` [Entry 64, 3-bromo-4-[4-(2,4-dimethylphenyl)piperazin-1-yl]-1H-pyrazolo[3,4-d]pyrimidine], the figures for the half-inhibitory concentration (IC50) in experiment [1] and in experiment [2] were 100 to 1000 nM and 1000 to 10000 nM, respectively.

As to `COc1cccc(N2CCN(c3ncnc4[nH]nc(Br)c34)CC2)c1` [Entry 65, 3-bromo-4-{4-[3-(methyloxy)phenyl]piperazin-1-yl}-1H-pyrazolo[3,4-d]pyrimidine], the IC50 in experiment [1] is less than 100 nM; in experiment [2], 1000 to 10000 nM.

As for `COc1ccccc1N1CCN(c2ncnc3[nH]nc(Br)c23)CC1` [Entry 66, 3-bromo-4-{4-[2-(methyloxy)phenyl]piperazin-1-yl}-1H-pyrazolo[3,4-d]pyrimidine], the IC50 in experiment [1] was less than 100 nM; in experiment [2], no less than 10000 nM.

For `Cc1ccc(N2CCN(c3ncnc4[nH]nc(Br)c34)CC2)cc1CCCN1CCCC1` [Entry 67, 3-bromo-4-{4-[4-methyl-3-(3-pyrrolidin-1-ylpropyl)phenyl]piperazin-1-yl}-1H-pyrazolo[3,4-d]pyrimidine], the IC50 in experiment [1] was 100 to 1000 nM; in experiment [2] it was 1000 to 10000 nM.

As for `Cc1c(OCCCN2CCCC2)cc(Cl)cc1N1CCN(c2ncnc3[nH]nc(C(F)(F)F)c23)CC1` [Entry 68, 4-(4-{5-chloro-2-methyl-3-[(3-pyrrolidin-1-ylpropyl)oxy]phenyl}piperazin-1-yl)-3-(trifluoromethyl)-1H-pyrazolo[3,4-d]pyrimidine], the values for the IC50 in experiment [1] and in experiment [2] were less than 100 nM and 100 to 1000 nM, respectively.

With `Cc1c(OCCCN2CCCCC2)cc(Cl)cc1N1CCN(c2ncnc3[nH]nc(C(F)(F)F)c23)CC1` [Entry 69, 4-(4-{5-chloro-2-methyl-3-[(3-piperidin-1-ylpropyl)oxy]phenyl}piperazin-1-yl)-3-(trifluoromethyl)-1H-pyrazolo[3,4-d]pyrimidine], the results for the IC50 in experiment [1] and in experiment [2] were less than 100 nM and 100 to 1000 nM, respectively.

On to `Cc1c(OCCCN2CCN(C)CC2)cc(Cl)cc1N1CCN(c2ncnc3[nH]nc(C(F)(F)F)c23)CC1` [Entry 70, 4-[4-(5-chloro-2-methyl-3-{[3-(4-methylpiperazin-1-yl)propyl]oxy}phenyl)piperazin-1-yl]-3-(trifluoromethyl)-1H-pyrazolo[3,4-d]pyrimidine], for which the IC50 is less than 100 nM in experiment [1] and 100 to 1000 nM in experiment [2].

As for `CCN1CCN(CCCOc2cc(Cl)cc(N3CCN(c4ncnc5[nH]nc(C(F)(F)F)c45)CC3)c2C)CC1` [Entry 71, 4-[4-(5-chloro-3-{[3-(4-ethylpiperazin-1-yl)propyl]oxy}-2-methylphenyl)piperazin-1-yl]-3-(trifluoromethyl)-1H-pyrazolo[3,4-d]pyrimidine], the IC50 is less than 100 nM in experiment [1] and 100 to 1000 nM in experiment [2].

Take `Cc1c(OCCN2CCN(C)CC2)cc(Cl)cc1N1CCN(c2ncnc3[nH]nc(Br)c23)CC1` [Entry 72, 3-bromo-4-[4-(5-chloro-2-methyl-3-{[2-(4-methylpiperazin-1-yl)ethyl]oxy}phenyl)piperazin-1-yl]-1H-pyrazolo[3,4-d]pyrimidine]: the IC50 was less than 100 nM in experiment [1] and 100 to 1000 nM in experiment [2].

Take `Cc1c(OCCN2CCN(C)CC2)cc(Cl)cc1N1CCN(c2ncnc3[nH]nc(C(F)(F)F)c23)CC1` [Entry 73, 4-[4-(5-chloro-2-methyl-3-{[2-(4-methylpiperazin-1-yl)ethyl]oxy}phenyl)piperazin-1-yl]-3-(trifluoromethyl)-1H-pyrazolo[3,4-d]pyrimidine]: the results for the IC50 in experiment [1] and in experiment [2] were less than 100 nM and 100 to 1000 nM, respectively.

In the case of `CCN1CCN(CCOc2cc(Cl)cc(N3CCN(c4ncnc5[nH]nc(Br)c45)CC3)c2C)CC1` [Entry 74, 3-bromo-4-[4-(5-chloro-3-{[2-(4-ethylpiperazin-1-yl)ethyl]oxy}-2-methylphenyl)piperazin-1-yl]-1H-pyrazolo[3,4-d]pyrimidine], the IC50 in experiment [1] and in experiment [2] was less than 100 nM in each case.

Consider `Clc1ccc(N2CCN(c3ncnc4[nH]nc(Br)c34)CC2)cc1Cl` [Entry 75, 3-bromo-4-[4-(3,4-dichlorophenyl)piperazin-1-yl]-1H-pyrazolo[3,4-d]pyrimidine], for which the 50% inhibitory concentration (IC50) in experiment [1] was 100 to 1000 nM; in experiment [2] it was no less than 10000 nM.

What is called IC50 is the point on the concentration scale where inhibition reaches its midpoint.

The record behind these values is patent publication US8076338B2, “Kinase modulators and methods of use” (Exelixis, Inc., priority 2004, dated 2011).
